Reference: patent US20180215734A1, “PYRIMIDINE DERIVATIVES AS KINASE INHIBITORS AND THEIR THERAPEUTICAL APPLICATIONS” (NantBioScience, Inc., priority 2016, published 2018)

Key:
KG1a = test: Inhibition of proliferation (CellTiterblue, 72 hr), KG1a; assay type: cell-based, human; settings: Homo sapiens, KG-1a; 72 hr
Procedure: A number of studies were performed to analyze the consequences of tyrosine kinase inhibition in cell lines. To do this, 1000 cells are seeded in 27 μl/well in 384-well microplates, which are then placed in a humidified CO2 incubator at 37° C. overnight. The next day, 3 μl/well of 10× concentrated drug is added and the plates are returned to the incubator for 72 hr. After 72 hr incubation, plates are removed and 6 μl/well CellTiterblue (Promega) viability reagent is added. Plates are returned to the incubator for 3 hrs, after which fluorescence measurements are read on the Victor X3 plate reader (Perkin Elmer). Data are analyzed using Excel (Microsoft), and GI50 values are determined using Prism (Graphpad).

FGFR1(h) = FGFR1(h) (Homo sapiens, UniProt P11362); test: Kinase assay, FGFR1(h); assay type: biochemical; settings: 1 μM
Procedure: (§1) Kinase assay protocols well known to those of ordinary skill in the art were used. Specifically, the buffer composition was as follows: 20 mM MOPS, 1 mM EDTA, 0.01% Brij-35, 5% Glycerol, 0.1% β-mercaptoethanol, 1 mg/mL BSA. Test compounds were initially dissolved in DMSO at the desired concentration, then serially diluted to the kinase assay buffer. In a final reaction volume of 25 μL FGFR1(h) (5-10 mU) and KDR(h) (5-10 mU) are incubated with 8 mM MOPS pH 7.0, 0.2 mM EDTA, 200 μM LRRASLG (Kemptide), 10 mM magnesium acetate and [γ^33P-ATP]. The reaction was initiated by the addition of the MgATP mix. After incubation for 40 minutes at room temperature, the reaction was stopped by addition of 5 μL of a 3% phosphoric acid solution. Ten L of the reaction was then spotted onto a P30 filter mat and washed three times for 5 minutes in 50 mM phosphoric acid and once in methanol prior to drying and scintillation counting. Wells containing substrate but no kinase and wells containing a phosphopeptide control were used to set 0% and 100% phosphorylation value, respectively.
(§2) Of all of the steps in developing a drug, the hardest is finding promising compounds. (See, e.g., Malo et al., “Statistical practice in high-throughput screening data analysis,” Nature Biotechnology, 2006, 24, 167-75.) Kinase inhibitors often also have an anti-proliferative effect. […] The kinase inhibitory activity Compound 19 was tested using the kinase assay described in Example 3. […] These mutations in the tested kinases are thought to play an important role in transformation of some cancers.

KDR(h) = KDR(h) (Homo sapiens, UniProt P35968); test: Kinase assay, KDR(h); assay type: biochemical
Procedure: as §1, §2

FGFR1(h), sequence (P11362 22-822): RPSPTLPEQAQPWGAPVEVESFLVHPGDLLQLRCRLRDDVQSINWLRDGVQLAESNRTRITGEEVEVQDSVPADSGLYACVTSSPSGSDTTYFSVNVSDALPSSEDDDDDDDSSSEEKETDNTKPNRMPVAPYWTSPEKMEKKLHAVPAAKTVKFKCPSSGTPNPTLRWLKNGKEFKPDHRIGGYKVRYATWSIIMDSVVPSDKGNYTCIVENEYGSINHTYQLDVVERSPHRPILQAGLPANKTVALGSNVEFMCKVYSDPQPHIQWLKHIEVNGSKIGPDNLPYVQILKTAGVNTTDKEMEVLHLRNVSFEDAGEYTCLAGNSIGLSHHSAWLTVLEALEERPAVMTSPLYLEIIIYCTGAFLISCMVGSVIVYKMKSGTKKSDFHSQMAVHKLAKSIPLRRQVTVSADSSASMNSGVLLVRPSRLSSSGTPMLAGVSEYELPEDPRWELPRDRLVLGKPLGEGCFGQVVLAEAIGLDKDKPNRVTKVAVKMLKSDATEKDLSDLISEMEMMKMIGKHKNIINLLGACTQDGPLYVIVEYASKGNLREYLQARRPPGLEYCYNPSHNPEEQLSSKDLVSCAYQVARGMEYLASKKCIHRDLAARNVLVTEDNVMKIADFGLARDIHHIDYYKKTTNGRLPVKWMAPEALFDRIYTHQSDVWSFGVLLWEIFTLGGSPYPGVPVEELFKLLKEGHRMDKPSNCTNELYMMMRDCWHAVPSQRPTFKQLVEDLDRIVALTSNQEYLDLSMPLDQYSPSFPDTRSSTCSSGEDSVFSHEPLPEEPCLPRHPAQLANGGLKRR
KDR(h), sequence (P35968 20-1356): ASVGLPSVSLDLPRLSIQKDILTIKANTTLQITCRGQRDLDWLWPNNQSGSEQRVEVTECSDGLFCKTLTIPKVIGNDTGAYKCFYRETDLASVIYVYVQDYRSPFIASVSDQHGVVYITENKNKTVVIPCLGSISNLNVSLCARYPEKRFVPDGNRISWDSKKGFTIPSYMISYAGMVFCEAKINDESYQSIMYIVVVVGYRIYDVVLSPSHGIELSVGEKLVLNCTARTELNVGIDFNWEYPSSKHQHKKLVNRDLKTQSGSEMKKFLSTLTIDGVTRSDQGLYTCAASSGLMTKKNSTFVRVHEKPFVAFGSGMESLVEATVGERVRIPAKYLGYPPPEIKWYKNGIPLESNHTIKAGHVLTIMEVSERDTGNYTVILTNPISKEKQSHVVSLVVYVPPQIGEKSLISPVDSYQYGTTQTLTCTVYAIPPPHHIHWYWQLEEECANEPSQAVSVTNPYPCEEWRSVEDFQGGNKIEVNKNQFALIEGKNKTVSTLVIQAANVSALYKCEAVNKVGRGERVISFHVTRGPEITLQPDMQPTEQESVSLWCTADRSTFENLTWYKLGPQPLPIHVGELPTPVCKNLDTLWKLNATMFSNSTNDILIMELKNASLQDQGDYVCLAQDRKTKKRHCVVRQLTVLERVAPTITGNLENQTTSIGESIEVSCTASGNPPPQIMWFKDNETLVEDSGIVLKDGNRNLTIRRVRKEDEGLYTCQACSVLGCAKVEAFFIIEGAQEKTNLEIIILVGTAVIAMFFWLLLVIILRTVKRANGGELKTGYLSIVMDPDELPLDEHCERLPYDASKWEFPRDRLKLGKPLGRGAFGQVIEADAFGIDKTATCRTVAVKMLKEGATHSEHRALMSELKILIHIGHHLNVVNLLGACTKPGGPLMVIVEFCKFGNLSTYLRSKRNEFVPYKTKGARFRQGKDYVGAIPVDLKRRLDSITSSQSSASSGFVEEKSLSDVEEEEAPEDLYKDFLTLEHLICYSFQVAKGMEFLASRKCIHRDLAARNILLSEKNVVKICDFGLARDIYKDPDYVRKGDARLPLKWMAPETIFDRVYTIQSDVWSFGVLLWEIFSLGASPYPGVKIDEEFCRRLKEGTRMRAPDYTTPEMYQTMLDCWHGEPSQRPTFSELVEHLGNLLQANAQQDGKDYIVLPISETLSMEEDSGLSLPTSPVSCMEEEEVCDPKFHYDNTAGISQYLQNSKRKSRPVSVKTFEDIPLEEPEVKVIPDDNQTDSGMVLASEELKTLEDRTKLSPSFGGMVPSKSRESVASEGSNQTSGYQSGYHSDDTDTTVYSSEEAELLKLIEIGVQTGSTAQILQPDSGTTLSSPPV

Row | SMILES | inhibition at 1 µM (FGFR1(h)) | inhibition at 1 µM (KDR(h)) | GI50 (KG1a)
1 | Cc1cc2c(F)c(Oc3ncnc(Nc4ccc(-n5ccnc5)cc4)c3C#N)ccc2[nH]1 [Compound 12] | 56% | 67% | 
2 | Cc1cc2c(F)c(Oc3ncnc(Nc4ccc(N5CCN(CC(F)(F)F)CC5)cc4)c3C#N)cc(F)c2[nH]1 [Compound 20] | 70% | 42% | 
3 | CC(=O)N(C)c1ccc(Nc2ncnc(Oc3cc(F)c4[nH]c(C)cc4c3F)c2C#N)cc1 [Compound 32] | 92% | 69% | 
4 | Cc1cc2c(F)c(Oc3ncnc(Nc4ccc(NC(=O)C5CC5)cc4)c3C#N)cc(F)c2[nH]1 [Compound 35] | 100% | 95% | 78 nM
5 | Cc1cc2c(F)c(Oc3ncnc(Nc4ccc(C(N)=O)cc4)c3C#N)cc(F)c2[nH]1 [Compound 36] | 99% | 67% | 182 nM
6 | CNC(=O)c1ccc(Nc2ncnc(Oc3cc(F)c4[nH]c(C)cc4c3F)c2C#N)cc1 [Compound 37] | 99% | 70% | 
7 | Cc1cc2c(F)c(Oc3ncnc(Nc4ccc(C(=O)N(C)C)cc4)c3C#N)cc(F)c2[nH]1 [Compound 38] | 90% | 73% | 
8 | Cc1cc2c(F)c(Oc3ncnc(Nc4ccc(F)cc4)c3C#N)cc(F)c2[nH]1 [Compound 39] | 91% | 36% | 
9 | Cc1cc2c(F)c(Oc3ncnc(Nc4ccc(Cl)cc4)c3C#N)cc(F)c2[nH]1 [Compound 40] | 78% | 20% | 
10 | Cc1cc2c(F)c(Oc3ncnc(Nc4ccc(N5CCCC5=O)cc4)c3C#N)cc(F)c2[nH]1 [Compound 41] | 101% | 96% | 180 nM
11 | Cc1cc2c(F)c(Oc3ncnc(Nc4ccc5[nH]ccc5c4)c3C#N)cc(F)c2[nH]1 [Compound 42] | 101% | 96% | 35 nM
12 | Cc1cc2c(F)c(Oc3ncnc(Nc4ccccc4O)c3C#N)cc(F)c2[nH]1 [Compound 43] | 97% | 76% | 
13 | Cc1cc2c(F)c(Oc3ncnc(Nc4ccc([N+](=O)[O-])cc4)c3C#N)cc(F)c2[nH]1 [Compound 44] | 41% | 14% | 
14 | CCC(=O)Nc1cccc(Nc2ncnc(Oc3cc(F)c4[nH]c(C)cc4c3F)c2C#N)c1 [Compound 52] | 101% | 91% | 174 nM
15 | COC(=O)c1ccc(Nc2ncnc(Oc3cc(F)c4[nH]c(C)cc4c3F)c2C#N)cc1 [Compound 54] | 89% | 17% | 
16 | Cc1cc2c(F)c(Oc3ncnc(Nc4ccc(C#N)cc4)c3C#N)cc(F)c2[nH]1 [Compound 55] | 55% | 6% | 

More lines, main results first:

Row | inhibition at 1 µM (FGFR1(h)) | inhibition at 1 µM (KDR(h)) | SMILES | GI50 (KG1a)
17 | 99% | 96% | COc1cc(N2CCN(C)CC2)ccc1Nc1ncnc(Oc2ccc3[nH]c(C)cc3c2F)c1C#N [Compound 1] | 49 nM
18 | 100% | 96% | Cc1cc2c(F)c(Oc3ncnc(Nc4ccc(N5CCN(C)CC5)c(F)c4)c3C#N)ccc2[nH]1 [Compound 2] | 62 nM
19 | 1% | 4% | Cc1cc2c(F)c(Oc3ncnc(N4CCN(C)CC4)c3C#N)ccc2[nH]1 [Compound 3] | 
20 | 26% | 9% | CCN1CCN(c2ccc(Nc3ncnc(Oc4ccc5[nH]c(C)cc5c4F)c3C(F)F)cc2)CC1 [Compound 5] | 
21 | 85% | 95% | Cc1cc2c(F)c(Oc3ncnc(Nc4ccc(C(=O)N5CCN(C)CC5)cc4)c3C#N)ccc2[nH]1 [Compound 6] | 
22 | 49% | 94% | Cc1cc2c(F)c(Oc3ncnc(Nc4ccc(N5CCN(C)CC5)c(C(F)(F)F)c4)c3C#N)ccc2[nH]1 [Compound 7] | 
23 | 97% | 96% | CCN1CCN(c2ccc(Nc3ncnc(Oc4ccc5[nH]c(C)cc5c4F)c3C#N)cc2F)CC1 [Compound 8] | 250 nM
24 | 100% | 96% | Cc1cc2c(F)c(Oc3ncnc(Nc4ccc(N5CCNCC5)c(F)c4)c3C#N)ccc2[nH]1 [Compound 9] | 314 nM
25 | 34% | 23% | Cc1cc2c(F)c(Oc3ncnc(Nc4ccc(CN5CCNCC5)cc4)c3C#N)ccc2[nH]1 [Compound 10] | 
26 | 100% | 96% | Cc1cc2c(F)c(Oc3ncnc(Nc4ccc(N5CCC(N(C)C)CC5)cc4)c3C#N)ccc2[nH]1 [Compound 11] | 25 nM
27 | 48% | 85% | Cc1cc2c(F)c(Oc3ncnc(Nc4ccc(-n5ccnc5C)cc4)c3C#N)ccc2[nH]1 [Compound 13] | 
28 | 94% | 96% | Cc1cc2c(F)c(Oc3ncnc(Nc4ccc(C)c(S(N)(=O)=O)c4)c3C#N)ccc2[nH]1 [Compound 15] | 
29 | 100% | 96% | Cc1cc2c(F)c(Oc3ncnc(Nc4ccc(N5C[C@@H](C)N[C@@H](C)C5)c(F)c4)c3C#N)ccc2[nH]1 [Compound 16] | 15 nM
30 | 76% | 92% | Cc1cc2c(F)c(Oc3ncnc(Nc4ccc(N5CCN(CC(F)(F)F)CC5)cc4)c3C#N)ccc2[nH]1 [Compound 18] | 
31 | 100% | 96% | Cc1cc2c(F)c(Oc3ncnc(Nc4cccc(N5CCOCC5)c4)c3C#N)ccc2[nH]1 [Compound 21] | 
32 | 100% | 96% | CCN1CCN(c2cccc(Nc3ncnc(Oc4ccc5[nH]c(C)cc5c4F)c3C#N)c2)CC1 [Compound 22] | 196 nM
33 | 98% | 96% | Cc1cc2c(F)c(Oc3ncnc(Nc4ccccc4)c3C#N)ccc2[nH]1 [Compound 23] | 
34 | 86% | 95% | Cc1cc2c(F)c(Oc3ncnc(Nc4ccc(N5CCCCC5)cc4)c3C#N)ccc2[nH]1 [Compound 24] | 
35 | 99% | 96% | CC(=O)Nc1ccc(Nc2ncnc(Oc3ccc4[nH]c(C)cc4c3F)c2C#N)cc1 [Compound 25, N-(4-((5-cyano-6-((4-fluoro-2-methyl-1H-indol-5-yl)oxy)pyrimidin-4-yl)amino)phenyl)acetamide] | 30 nM
36 | 97% | 96% | Cc1cc2c(F)c(Oc3ncnc(Nc4ccc(NS(C)(=O)=O)cc4)c3C#N)ccc2[nH]1 [Compound 26] | 
37 | 99% | 97% | Cc1cc2c(F)c(Oc3ncnc(Nc4ccc(N5CCNC(=O)C5)cc4)c3C#N)ccc2[nH]1 [Compound 27] | 
38 | 99% | 96% | Cc1cc2c(F)c(Oc3ncnc(Nc4ccc(N5CCCS5(=O)=O)cc4)c3C#N)ccc2[nH]1 [Compound 28] | 226 nM
39 | 91% | 95% | CCOc1ccc(Nc2ncnc(Oc3ccc4[nH]c(C)cc4c3F)c2C#N)cc1 [Compound 29] | 
40 | 91% | 94% | Cc1cc2c(F)c(Oc3ncnc(Nc4ccc(C5CCNCC5)cc4)c3C#N)ccc2[nH]1 [Compound 30] | 
